Data as given in patent US20090281322A1, “THERAPEUTICALLY USEFUL SUBSTITUTED 1,7-DIPHENYL-1,2,3,5,6,7-HEXAHYDROPYRIDO[3,2,1-Ij]QUINOLINE COMPOUNDS” (ALLERGAN, INC., priority 2008, published 2009).

target: S1P3 receptor (Homo sapiens, UniProt Q99500); assay: in vitro activity in the S1P3 receptor; assay type: cell-based; settings: not given
Procedure: The in vitro activity of these compounds in the S1P3 receptor was determined using the assay described in paragraph [0067] of United States Patent Application Publication No. 20070232682, which published on Oct. 4, 2007.

Chain of S1P3 receptor (Q99500 whole entry): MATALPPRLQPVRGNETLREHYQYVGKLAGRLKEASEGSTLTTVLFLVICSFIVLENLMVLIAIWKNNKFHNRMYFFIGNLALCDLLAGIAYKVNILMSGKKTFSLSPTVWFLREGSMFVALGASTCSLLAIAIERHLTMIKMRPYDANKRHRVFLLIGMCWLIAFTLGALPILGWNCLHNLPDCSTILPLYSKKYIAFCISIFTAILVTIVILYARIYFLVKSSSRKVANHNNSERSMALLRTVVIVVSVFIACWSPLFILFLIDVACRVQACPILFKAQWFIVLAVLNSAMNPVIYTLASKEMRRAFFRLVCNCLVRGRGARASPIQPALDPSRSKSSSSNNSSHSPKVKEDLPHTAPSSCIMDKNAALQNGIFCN

S1P3 % Inhibition [%] | SMILES
98 | CC#CCOC(=O)Nc1cc2c3c(c1)C(c1ccccc1)CCN3CCC2c1ccccc1 (stereo not drawn) [compound 353, But-2-ynyl 1,7-diphenyl-1,2,3,5,6,7-hexahydropyrido[3,2,1-ij]quinolin-9-ylcarbamate]
97 | C=CCCOC(=O)Nc1cc2c3c(c1)C(c1ccccc1)CCN3CCC2c1ccccc1 (stereo not drawn) [compound 354, But-3-enyl 1,7-diphenyl-1,2,3,5,6,7-hexahydropyrido[3,2,1-ij]quinolin-9-ylcarbamate]

same assay, conditions: Activity potency nM, (IC50)

SMILES | IC50 [nM]
CCCOC(=O)Nc1cc2c3c(c1)C(c1cccc(F)c1)CCN3CCC2c1cccc(F)c1 (stereo not drawn) [compound 094, Propyl 1,7-bis(3-fluorophenyl)-1,2,3,5,6,7-hexahydropyrido[3,2,1-ij]quinolin-9-ylcarbamate] | 234
CCCCOC(=O)Nc1cc2c3c(c1)C(c1cccc(F)c1)CCN3CCC2c1cccc(F)c1 (stereo not drawn) [compound 202, Butyl 1,7-bis(3-fluorophenyl)-1,2,3,5,6,7-hexahydropyrido[3,2,1-ij]quinolin-9-ylcarbamate] | 272
CCCNC(=S)Nc1cc2c3c(c1)C(c1ccccc1)CCN3CCC2c1ccccc1 (stereo not drawn) [compound 255, 1-(1,7-diphenyl-1,2,3,5,6,7-hexahydropyrido[3,2,1-ij]quinolin-9-yl)-3-propylthiourea] | 153
CCCCCCNC(=S)Nc1cc2c3c(c1)C(c1ccccc1)CCN3CCC2c1ccccc1 (stereo not drawn) [compound 256, 1-(1,7-diphenyl-1,2,3,5,6,7-hexahydropyrido[3,2,1-ij]quinolin-9-yl)-3-hexylthiourea] | 78
CCOC(=O)Nc1cc2c3c(c1)C(c1ccccc1)CCN3CCC2c1ccccc1 (stereo not drawn) [compound 273, Ethyl 1,7-diphenyl-1,2,3,5,6,7-hexahydropyrido[3,2,1-ij]quinolin-9-ylcarbamate] | 63
CC(C)COC(=O)Nc1cc2c3c(c1)C(c1ccccc1)CCN3CCC2c1ccccc1 (stereo not drawn) [compound 274, Isobutyl 1,7-diphenyl-1,2,3,5,6,7-hexahydropyrido[3,2,1-ij]quinolin-9-ylcarbamate] | 64
O=C(Nc1cc2c3c(c1)C(c1ccccc1)CCN3CCC2c1ccccc1)Oc1ccccc1 (stereo not drawn) [compound 277, Phenyl 1,7-diphenyl-1,2,3,5,6,7-hexahydropyrido[3,2,1-ij]quinolin-9-ylcarbamate] | 901
O=C(Nc1cc2c3c(c1)C(c1ccccc1)CCN3CCC2c1ccccc1)OCc1ccccc1 (stereo not drawn) [compound 278, Benzyl 1,7-diphenyl-1,2,3,5,6,7-hexahydropyrido[3,2,1-ij]quinolin-9-ylcarbamate] | 66
CN(C)C(=O)Nc1cc2c3c(c1)C(c1ccccc1)CCN3CCC2c1ccccc1 (stereo not drawn) [compound 405, 3-(1,7-diphenyl-1,2,3,5,6,7-hexahydropyrido[3,2,1-ij]quinolin-9-yl)-1,1-dimethylurea] | 131
CCNC(=O)Nc1cc2c3c(c1)C(c1ccccc1)CCN3CCC2c1ccccc1 (stereo not drawn) [compound 484, 1-(1,7-diphenyl-1,2,3,5,6,7-hexahydropyrido[3,2,1-ij]quinolin-9-yl)-3-ethylurea] | 77
CCCCCCNC(=O)Nc1cc2c3c(c1)C(c1ccccc1)CCN3CCC2c1ccccc1 (stereo not drawn) [compound 487, 1-(1,7-diphenyl-1,2,3,5,6,7-hexahydropyrido[3,2,1-ij]quinolin-9-yl)-3-hexylurea] | 301
O=C(NCCCl)Nc1cc2c3c(c1)C(c1ccccc1)CCN3CCC2c1ccccc1 (stereo not drawn) [compound 769, 1-(2-chloroethyl)-3-(1,7-diphenyl-1,2,3,5,6,7-hexahydropyrido[3,2,1-ij]quinolin-9-yl)urea] | 374
C=CCNC(=O)Nc1cc2c3c(c1)C(c1ccccc1)CCN3CCC2c1ccccc1 (stereo not drawn) [compound 773, 1-allyl-3-(1,7-diphenyl-1,2,3,5,6,7-hexahydropyrido[3,2,1-ij]quinolin-9-yl)urea] | 160
O=C(Nc1cc2c3c(c1)C(c1ccccc1)CCN3CCC2c1ccccc1)N1CCOCC1 (stereo not drawn) [compound 983, N-(1,7-diphenyl-1,2,3,5,6,7-hexahydropyrido[3,2,1-ij]quinolin-9-yl)morpholine-4-carboxamide] | 130

The next lines start with the values.

IC50 [nM] | SMILES
48 | CCOC(=O)Nc1cc2c3c(c1)C(c1cccc(F)c1)CCN3CCC2c1cccc(F)c1 (stereo not drawn) [compound 093, Ethyl 1,7-bis(3-fluorophenyl)-1,2,3,5,6,7-hexahydropyrido[3,2,1-ij]quinolin-9-ylcarbamate]
56 | O=C(Nc1cc2c3c(c1)C(c1ccccc1)CCN3CCC2c1ccccc1)OCCF (stereo not drawn) [compound 095, 2-fluoroethyl 1,7-diphenyl-1,2,3,5,6,7-hexahydropyrido[3,2,1-ij]quinolin-9-ylcarbamate]
38 | CC(C)(C)NC(=O)Nc1cc2c3c(c1)C(c1ccccc1)CCN3CCC2c1ccccc1 (stereo not drawn) [compound 148, 1-tert-butyl-3-(1,7-diphenyl-1,2,3,5,6,7-hexahydropyrido[3,2,1-ij]quinolin-9-yl)urea]
8 | O=C(Nc1cc2c3c(c1)C(c1ccccc1)CCN3CCC2c1ccccc1)OCCCCl (stereo not drawn) [compound 205, 3-chloropropyl 1,7-diphenyl-1,2,3,5,6,7-hexahydropyrido[3,2,1-ij]quinolin-9-ylcarbamate]
62 | O=C(Nc1cc2c3c(c1)C(c1ccccc1)CCN3CCC2c1ccccc1)OCCCCCl (stereo not drawn) [compound 206, 4-chlorobutyl 1,7-diphenyl-1,2,3,5,6,7-hexahydropyrido[3,2,1-ij]quinolin-9-ylcarbamate]
59 | O=C(NCc1ccoc1)Nc1cc2c3c(c1)C(c1ccccc1)CCN3CCC2c1ccccc1 (stereo not drawn) [compound 258, 1-(1,7-diphenyl-1,2,3,5,6,7-hexahydropyrido[3,2,1-ij]quinolin-9-yl)-3-(furan-3-ylmethyl)urea]
8.3 | COC(=O)Nc1cc2c3c(c1)C(c1ccccc1)CCN3CCC2c1ccccc1 (stereo not drawn) [compound 272, methyl 1,7-diphenyl-1,2,3,5,6,7-hexahydropyrido[3,2,1-ij]quinolin-9-ylcarbamate]
12.2 | CCCOC(=O)Nc1cc2c3c(c1)C(c1ccccc1)CCN3CCC2c1ccccc1 (stereo not drawn) [compound 275, Propyl 1,7-diphenyl-1,2,3,5,6,7-hexahydropyrido[3,2,1-ij]quinolin-9-ylcarbamate]
8.7 | CCCCOC(=O)Nc1cc2c3c(c1)C(c1ccccc1)CCN3CCC2c1ccccc1 (stereo not drawn) [compound 276, Butyl 1,7-diphenyl-1,2,3,5,6,7-hexahydropyrido[3,2,1-ij]quinolin-9-ylcarbamate]
40 | C#CCOC(=O)Nc1cc2c3c(c1)C(c1ccccc1)CCN3CCC2c1ccccc1 (stereo not drawn) [compound 352, Prop-2-ynyl 1,7-diphenyl-1,2,3,5,6,7-hexahydropyrido[3,2,1-ij]quinolin-9-ylcarbamate]
13 | CC#CCOC(=O)Nc1cc2c3c(c1)C(c1ccccc1)CCN3CCC2c1ccccc1 (stereo not drawn) [compound 353, But-2-ynyl 1,7-diphenyl-1,2,3,5,6,7-hexahydropyrido[3,2,1-ij]quinolin-9-ylcarbamate]
16 | C=CCCOC(=O)Nc1cc2c3c(c1)C(c1ccccc1)CCN3CCC2c1ccccc1 (stereo not drawn) [compound 354, But-3-enyl 1,7-diphenyl-1,2,3,5,6,7-hexahydropyrido[3,2,1-ij]quinolin-9-ylcarbamate]
52 | CCCCNC(=O)Nc1cc2c3c(c1)C(c1ccccc1)CCN3CCC2c1ccccc1 (stereo not drawn) [compound 485, 1-Butyl-3-(1,7-diphenyl-1,2,3,5,6,7-hexahydropyrido[3,2,1-ij]quinolin-9-yl)urea]
23 | COC(=O)Nc1cc2c3c(c1)C(c1cccc(F)c1)CCN3CCC2c1cccc(F)c1 (stereo not drawn) [compound 779, Methyl 1,7-bis(3-fluorophenyl)-1,2,3,5,6,7-hexahydropyrido[3,2,1-ij]quinolin-9-ylcarbamate]
